Measurements reported in patent US20250340543A1, “GPR84 ANTAGONISTS AND USES THEREOF” (Liminal BioSciences Limited, priority 2021, published 2025).

These compounds were tested against GPR84 (Homo sapiens (Human), UniProt Q9NQS5) (assay: Gai biosensor BRET assay (GPR84-mediated activation of Gai, antagonist mode against agonist ZQ-16)). Settings: compound tested at 10 μM (concentration code D).
GPR84, sequence (Q9NQS5 whole entry): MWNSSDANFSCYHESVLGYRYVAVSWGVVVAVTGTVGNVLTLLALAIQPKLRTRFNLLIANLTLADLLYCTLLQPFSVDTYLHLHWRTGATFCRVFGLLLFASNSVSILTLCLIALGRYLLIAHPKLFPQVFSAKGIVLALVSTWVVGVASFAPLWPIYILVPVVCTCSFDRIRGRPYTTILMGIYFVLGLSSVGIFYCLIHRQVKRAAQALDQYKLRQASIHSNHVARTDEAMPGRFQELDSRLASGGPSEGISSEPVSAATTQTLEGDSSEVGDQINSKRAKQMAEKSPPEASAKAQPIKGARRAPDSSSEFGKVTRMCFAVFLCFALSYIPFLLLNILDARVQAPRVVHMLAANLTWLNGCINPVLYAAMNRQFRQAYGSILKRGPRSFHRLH
Assay type: cell-based
Outline: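 Transiently transfected HEK293 cells expressing GPR84, Gαi2-Rluc8, GFP10-Gγ2 and Gβ1, in Tyrode's buffer pH 7.5. Compounds pre-incubated 5 min at 37° C, then 200 nmol/L ZQ-16 for 5 min at room temperature; BRET² with coelenterazine 400A, ligand-promoted net BRET after background and vehicle subtraction.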
In the case of `Cc1cc(OCc2ncccn2)cc(=O)n1-c1ccc(C#CC2CC2)cc1` [Compound I-244], the inhibition at 10 µM was less than 25%.
With `Cc1cc(N(C)Cc2ncccn2)cc(=O)n1[C@H](C)c1ccc(C#CC2CC2)cc1` [Compound I-372] the inhibition at 10 µM was greater than 75%.
For `Cc1cc(OCc2ccccc2Cl)cc(=O)n1[C@H](C)c1ccc(C#CC2CC2)cc1` [Compound I-297], the inhibition at 10 µM was less than 25%.
In the case of `CC(c1ccc(C#CC2CC2)cn1)n1ccc(OCc2ncccn2)cc1=O` (stereo not shown) [Compound I-249], the inhibition at 10 µM was 25 to 50%.
With `Cc1cc(OCc2ncc[nH]2)cc(=O)n1[C@H](C)c1ccc(C#CC2CC2)cc1` [Compound I-355] the inhibition at 10 µM was 25 to 50%.
Compound `Cc1cc(C#CC2CC2)ccc1Cn1c(C)nc(OCC2COCCO2)cc1=O` (stereo not shown) [Compound I-113] has an inhibition at 10 µM of less than 25%.
`Cc1cc(OCc2ncccn2)cc(=O)n1C(C)c1cccc(C#CC2CC2)c1` (stereo not shown) [Compound I-261] was tested, and the inhibition at 10 µM was less than 25%.
`CC(c1cc(C#CC2CC2)ccn1)n1ccc(OCc2ncccn2)cc1=O` (stereo not shown) [Compound I-250] gave an inhibition at 10 µM of 25 to 50%.
With `Cc1cc(OCc2ncccn2)cc(=O)n1[C@H](C)c1ccc(C#CCNCc2ccccc2)cc1` [Compound I-263] the inhibition at 10 µM was less than 25%.
Compound `CCc1cc(OCC2COCCO2)cc(=O)n1C(C)c1ccc(C#CC2CC2)cc1` (stereo not shown) [Compound I-50] has an inhibition at 10 µM of 25 to 50%.
For `Cc1cc(OCc2ncccn2)cc(=O)n1[C@H](C)c1ccc(C#CC2CC2)nc1` [Compound I-288], the inhibition at 10 µM was 25 to 50%.
Work on `CC1(C)CN(c2cccc(Cn3ccc(OCC4COCCO4)cc3=O)c2)C1` (stereo not shown) [Compound I-228] yielded an inhibition at 10 µM of less than 25%.
For `Cc1cc(C#CC2CC2)ccc1C(C)n1ccc(OCc2ncccn2)cc1=O` (stereo not shown) [Compound I-251], the inhibition at 10 µM was less than 25%.
With `COc1ccc([C@@H](C)n2c(C)cc(OCc3ncccn3)cc2=O)cc1` [Compound I-301] the inhibition at 10 µM was less than 25%.

Same assay, conditions: compound tested at 12.5 μM (concentration code E)
In the case of `Cc1c(-c2ccc(OCC(F)(F)F)cc2)n(C)c(OCC2COCCO2)cc1=O` (stereo not shown) [Compound I-52], the inhibition at 12.5 µM was 25 to 50%.
`Clc1cc(OCC2COCCO2)cc(-c2ccc(OCc3ccccn3)cc2)n1` (stereo not shown) [Compound I-107] gave an inhibition at 12.5 µM of less than 25%.
Work on `Cc1cc(OCC2COc3ccccc3O2)cc(=O)n1Cc1ccc(C#CC2CC2)cc1` (stereo not shown) [Compound I-73] yielded an inhibition at 12.5 µM of less than 25%.

Same assay, conditions: compound tested at 15 μM (concentration code F)
`COc1cc(OCC2COCCO2)cc(-c2cccc(-c3ccc(C)nc3)c2)n1` (stereo not shown) [Compound I-66] showed an inhibition at 15 µM of less than 25%.
`COc1ccc(OCC2COCCO2)cc1Cc1ccc(C#CC2CC2)cc1` (stereo not shown) [Compound I-210] was tested, and the inhibition at 15 µM was less than 25%.

Same assay, conditions: compound tested at 25 μM (concentration code G)
With `FC(F)(F)COc1ccc(-c2nc(OCC3COCCO3)cc3c2OCCC3)cc1` (stereo not shown) [Compound I-160] the inhibition at 25 µM was less than 25%.
With `Cc1ccc(-c2ccc(-c3cc(OCC4COCCO4)cc(Cl)n3)c(C)c2)cn1` (stereo not shown) [Compound I-93] the inhibition at 25 µM was less than 25%.
Work on `CC(=O)N1CCN(c2cc(OCC3COCCO3)nc(=O)n2C)CC1` (stereo not shown) [Compound I-138] yielded an inhibition at 25 µM of less than 25%.
With `Cc1ccc(-c2ccc(Cn3c(C)cc(OCC4COCCO4)cc3=O)cc2)cn1` (stereo not shown) [Compound I-91] the inhibition at 25 µM was less than 25%.
With `COc1nc(OCC2COCCO2)cc(-c2ccc(C#CC3CC3)cc2C)n1` (stereo not shown) [Compound I-103] the inhibition at 25 µM was less than 25%.
`COc1cc(OCC2CCCCO2)cc(-c2ccc(-c3ccc(C)nc3)cc2C)n1` (stereo not shown) [Compound I-19] showed an inhibition at 25 µM of 50 to 75%.
For `COc1cc(OCC2COCCO2)nc(-c2ccc(OCc3ccccn3)cc2C)n1` (stereo not shown) [Compound I-134], the inhibition at 25 µM was less than 25%.
`COc1nc(OCC2COCCO2)cc(-c2ccc(OCC(F)(F)F)cc2)n1` (stereo not shown) [Compound I-110] gave an inhibition at 25 µM of less than 25%.
Compound `COc1cc(NC(=O)C2CCCCO2)cc(-c2cccc(C#CC3CC3)c2)n1` (stereo not shown) [Compound I-84] has an inhibition at 25 µM of less than 25%.
In the case of `CSc1nc(OCC2COCCO2)cc(-c2cnc(OCC(F)(F)F)cc2C)n1` (stereo not shown) [Compound I-9], the inhibition at 25 µM was less than 25%.
For `O=c1nc(OCC2COCCO2)cc2n1CCOc1cc(Cl)ccc1-2` (stereo not shown) [Compound I-206], the inhibition at 25 µM was 25 to 50%.
`Cc1ccc(-c2ccc(-c3cc(OCC4COCCO4)cc(Cl)n3)cc2)cn1` (stereo not shown) [Compound I-105] was tested, and the inhibition at 25 µM was less than 25%.
`COc1cc(OCC2COCCO2)cc(-c2ccc(C#CC3CC3)cc2C)n1` (stereo not shown) [Compound I-90] showed an inhibition at 25 µM of less than 25%.
Compound `COc1cc(OCC2COCCO2)cc(-c2ccc(OCC(F)(F)F)cc2)c1OC` (stereo not shown) [Compound I-156] has an inhibition at 25 µM of less than 25%.
In the case of `O=c1cc(OCC2COCCO2)cc(-n2ccc(OCC(F)(F)F)cc2=O)[nH]1` (stereo not shown) [Compound I-5], the inhibition at 25 µM was less than 25%.
`O=c1cnn(CC2CCCCO2)c(-c2ccc(C#CC3CC3)cc2)c1` (stereo not shown) [Compound I-16] gave an inhibition at 25 µM of less than 25%.
Work on `Cc1ccc(-c2ccc(Cc3cccc(OCC4COCCO4)c3)cc2)cn1` (stereo not shown) [Compound I-176] yielded an inhibition at 25 µM of less than 25%.
In the case of `COc1cc(OCC2COCCO2)nc(-c2ccc(OCC(F)(F)F)cc2)c1OC` (stereo not shown) [Compound I-94], the inhibition at 25 µM was less than 25%.
